Consider 26 molecules from ChEMBL document CHEMBL4732183, “Synthesis and evaluation of novel cyclopentane urea FPR2 agonists and their potential application in the treatment of cardiovascular inflammation” (Eur J Med Chem, 2021).

The nature of data set [1]: Metabolic stability in mouse liver microsomes assessed as half life at 1 uM incubated for 30 mins by LC-MS/MS analysis. It is filed as ADME, Microsome.
Data set [2] can be described thus: Distribution coefficient between octanol and PBS, log D of compound in pH 7.4 at 100 uM incubated for 12 hrs by LC-MS/MS analysis. It is filed as physicochemical.
Data set [3] can be described thus: Metabolic stability in human liver microsomes assessed as half life at 1 uM incubated for 30 mins by LC-MS/MS analysis. It is filed as ADME, Microsome.
Data set [4] is described as follows: Half life in C57BL/6 mouse at 10 mg/kg, ip measured upto 24 hrs. It is filed as ADME, organism-based. Particulars: in vivo.
A short description of data set [5]: AUC extrapolated in C57BL/6 mouse at 10 mg/kg, ip measured upto 24 hrs. It is filed as ADME, organism-based. Particulars: in vivo.
A short description of data set [6]: MRT (0 to last) in C57BL/6 mouse at 10 mg/kg, ip measured upto 24 hrs. To be noted: in vivo. Type of data set: ADME, organism-based.
Data set [7] in a line: AUC (0 to infinity) in C57BL/6 mouse at 10 mg/kg, ip measured upto 24 hrs. It is filed as ADME, organism-based. The arrangement: route intraperitoneal, dose 10 mg/kg, time <=24. To be noted: in vivo.
Data set [8] in a line: Tmax in C57BL/6 mouse at 10 mg/kg, ip measured upto 24 hrs. It is filed as ADME, organism-based. Particulars: in vivo.
Data set [9] is described as follows: AUC (0 to last) in C57BL/6 mouse at 10 mg/kg, ip measured upto 24 hrs. Type of data set: ADME, organism-based. Also noted: route intraperitoneal, dose 10 mg/kg, time <=24. Particulars: in vivo.
The nature of data set [10]: Cmax in C57BL/6 mouse at 10 mg/kg, ip measured upto 24 hrs. Type of data set: ADME, organism-based. Also noted: route intraperitoneal, dose 10 mg/kg, time <=24. Particulars: in vivo.

Broadly, the half-life is the time needed for the level to fall by half in the phase considered. One may read the logD as lipophilicity at a set pH, counting ionised and neutral species. On to `CN1CCC(NC(=O)C(NC(=O)Nc2ccc(Br)cc2)C2CCCC2)CC1` (configuration not stated), for which the half-life at 1 µM was 7.95 h in [1] and 1.83 h in data set [3]. Moreover, in data set [2], the logD at 12 h, 100 µM is 2.5.

As for `Cc1cncc(NC(=O)C2(NC(=O)Nc3ccc(Br)cc3)CCCC2)c1`, the logD at 12 h, 100 µM in [2] was 3.7.

For the molecule `O=C(Nc1ccc(Br)cc1)NC(CC1CCCCC1)C(=O)Nc1cccnc1` (configuration not stated), the half-life at 1 µM was 0.183 h in [1] and 1.02 h in data set [3]. Besides, the logD at 12 h, 100 µM in data set [2] was greater than 4.

On to `CC(C)C[C@H](NC(=O)Nc1ccc(Br)cc1)C(=O)Nc1cccnc1`, for which the half-life at 1 µM in [1] came to 1.08 h; in data set [3], 1.58 h. The molecule further came in with a logD at 12 h, 100 µM in [2] of 4.2.

Turning to `CN1CCC(NC(=O)C2(NC(=O)Nc3ccc(Br)cc3)CCCC2)CC1`, the half-life at 1 µM in data set [1] is 3.23 h; in data set [3], 2.62 h. The log distribution coefficient (logD) at 12 h, 100 µM in data set [2] came out at 1.2.

Consider `O=C(Nc1ccc(Br)cc1)NC(C(=O)Nc1cccnn1)C1CCCC1` (configuration not stated), for which the half-life at 1 µM worked out at 0.183 h in data set [1] and 0.267 h in [3]. The logD at 12 h, 100 µM in [2] is greater than 4.

As to `O=C(Nc1ccc(Br)cc1)NC1(C(=O)Nc2cncnc2)CCCC1`, the figures for the half-life at 1 µM in data set [1] and in data set [3] were 1.73 h and 1.83 h, respectively. In [2], this molecule registered a logD at 12 h, 100 µM of 3.7.

Regarding `O=C(Nc1ccc(Br)cc1)NC1(C(=O)Nc2ccccn2)CCCC1`, the half-life at 1 µM in data set [1] was found to be 0.15 h; in data set [3], 0.133 h. In data set [2], the logD at 12 h, 100 µM is 4.3.

In data set [2], `CC(C)n1cc(NC(=O)C(NC(=O)Nc2ccc(Br)cc2)C2CCCC2)cn1` (configuration not stated) returned a logD at 12 h, 100 µM greater than 4.

In data set [2], `Cc1nn(C)cc1NC(=O)C(NC(=O)Nc1ccc(Br)cc1)C1CCCC1` (configuration not stated) came in with a logD at 12 h, 100 µM greater than 4.

For `O=C(Nc1ccc(Br)cc1)NC(C(=O)Nc1cccnc1)C1CC1` (configuration not stated), the values for the half-life at 1 µM in [1] and in data set [3] were 0.683 h and 1.33 h, respectively. This molecule also showed a logD at 12 h, 100 µM in [2] greater than 4.

For `O=C(Nc1ccc(Br)cc1)NC(C(=O)NC1COC1)C1CCCC1` (configuration not stated), the half-life at 1 µM in [1] and in [3] was greater than 6.67 h each time. The logD at 12 h, 100 µM in [2] came out at 4.3.

With `O=C(Nc1ccc(Br)cc1)NC(C(=O)NC1CCOCC1)C1CCCC1` (configuration not stated), the half-life at 1 µM in data set [1] came to 1.73 h; in data set [3] it was 3.45 h. The molecule also registered a pH-dependent lipophilicity (logD) at 12 h, 100 µM in [2] greater than 4.

As for `O=C(Nc1ccc(Br)cc1)NC(C(=O)NCC1CCCO1)C1CCCC1` (configuration not stated), the half-life at 1 µM amounted to 0.417 h in data set [1] and 0.217 h in [3]. For the same molecule, the logD at 12 h, 100 µM in data set [2] stood at 4.7.

Consider `O=C(Nc1ccc(Br)cc1)NC1(C(=O)Nc2ccc(Cl)nc2)CCCC1`, for which the half-life at 1 µM in data set [1] is 0.533 h; in [3], 0.867 h. This molecule showed a log distribution coefficient (logD) at 12 h, 100 µM in [2] of 4.4.

In the case of `CC(C)n1cc(NC(=O)C2(NC(=O)Nc3ccc(Br)cc3)CCCC2)cn1`, the half-life at 1 µM in data set [1] was found to be 1.5 h; in data set [3] it was 2.17 h. In data set [2], the logD at 12 h, 100 µM is 4.2.

On to `O=C(Nc1ccc(Br)cc1)NC(C(=O)Nc1cncnc1)C1CCCC1` (configuration not stated), for which the half-life at 1 µM in [1] came to 1.53 h; in data set [3], 3.07 h. The logD at 12 h, 100 µM in data set [2] was 4.

One may read the MRT last as a mean duration of stay, worked out from the concentration-time curve. As usually defined, the AUC(0-inf) is total exposure, with the tail of the curve extrapolated. A word on the Tmax: it is the time at which the peak concentration occurs. One may read the AUC(0-t) as the area under the concentration-time curve up to a stated or last time point. A lower AUC(0-t) goes with low exposure. The term Cmax denotes the highest concentration seen after dosing. As to `O=C(Nc1ccc(Br)cc1)NC(C(=O)Nc1cccnc1)C1CCCC1` (configuration not stated), the half-life in [4] was 2.08 h. In addition, the results for the half-life at 1 µM in data set [1] and in data set [3] were 0.55 h and 1.38 h, respectively. The molecule also had a logD at 12 h, 100 µM in [2] greater than 4. Further, in data set [5], the “%AUCextra” value is on record as 0.02%. For the same molecule, the MRT last at 24 h in data set [6] was determined as 2.41 h. Also, the AUC(0-inf) in [7] turned out to be 69000 ng·h/mL. In addition, in data set [8], the Tmax was determined as 0.5 h. Further, the AUC(0-t) at 24 h in [9] is 69000 ng·h/mL. This molecule yielded a Cmax in [10] of 31900 ng/mL.

As for `O=C(CNC(=O)Nc1ccc(Br)cc1)Nc1cccnc1`, the values for the half-life at 1 µM in data set [1] and in data set [3] were 0.367 h and 1.87 h, respectively. Also, the logD at 12 h, 100 µM in data set [2] was found to be 3.6.

Take `O=C(Nc1ccc(Br)cc1)N[C@@H](CC1CC1)C(=O)Nc1cccnc1`: the half-life at 1 µM in data set [1] is 0.733 h; in data set [3], 1.52 h. In data set [2], this molecule returned a logD at 12 h, 100 µM greater than 4.

As to `Cc1nn(C)cc1NC(=O)C1(NC(=O)Nc2ccc(Br)cc2)CCCC1`, the half-life at 1 µM in data set [1] was 3.78 h; in [3], 2.6 h. In data set [2], the logD at 12 h, 100 µM stood at 3.1.

Turning to `O=C(Nc1ccc(Br)cc1)NC1(C(=O)NCc2nn[nH]n2)CCCC1`, the half-life at 1 µM in data set [1] stood at 6.98 h; in data set [3], 8.67 h. In [2], this molecule returned a logD at 12 h, 100 µM of 1.1.

Take `O=C(Nc1ccc(Br)cc1)NC(C(=O)Nc1cccnc1)C1CCOCC1` (configuration not stated): the results for the half-life at 1 µM in data set [1] and in data set [3] were 1.5 h and 3.13 h, respectively. Also, the logD at 12 h, 100 µM in data set [2] is 4.7.

In turn, `O=C(Nc1ccc(Br)cc1)NC(C(=O)NC1CNC1)C1CCCC1` (configuration not stated) registered a logD at 12 h, 100 µM in [2] of 1.6.

Turning to `Cc1ccc(NC(=O)C2(NC(=O)Nc3ccc(Br)cc3)CCCC2)cn1`, the half-life at 1 µM in data set [1] amounted to 0.6 h; in [3], 1.67 h. This molecule yielded a logD at 12 h, 100 µM in [2] of 3.9.

With `O=C(Nc1ccc(Br)cc1)NC1(C(=O)Nc2cccnc2)CCCC1`, the figures for the half-life at 1 µM in [1] and in data set [3] were 1.32 h and 1.8 h, respectively. This molecule also displayed a logD at 12 h, 100 µM in data set [2] of 4.1.
